Results as given in US7323447B2, “Hepatitis C virus inhibitors” (Bristol-Myers Squibb Company, priority 2005, dated 2008).
Like-named read-outs stand apart in the source and are kept apart here.

Experiments:
[1] = target: T1, HCV NS3/4A protease complex (BMS strain) (UniProt P27958); experiment: FRET peptide assay to monitor HCV NS3/4A proteolytic activity, BMS strain; type: biochemical, Hepatitis C virus (genotype 1a); conditions: read-out: IC50 Range; HCV NS3/4A enzyme assay; Table 1
T1 construct: other: HCV NS3/4A enzyme assay; said of H77 and J4L6S; fused on or other part: Three-lysine solubilising tail at the NS4A C-terminus and a His tag from pET21b (Ni-NTA purification), for the H77 and J4L6S constructs
T1 sequence (P27958 1027-1657, one chain of several): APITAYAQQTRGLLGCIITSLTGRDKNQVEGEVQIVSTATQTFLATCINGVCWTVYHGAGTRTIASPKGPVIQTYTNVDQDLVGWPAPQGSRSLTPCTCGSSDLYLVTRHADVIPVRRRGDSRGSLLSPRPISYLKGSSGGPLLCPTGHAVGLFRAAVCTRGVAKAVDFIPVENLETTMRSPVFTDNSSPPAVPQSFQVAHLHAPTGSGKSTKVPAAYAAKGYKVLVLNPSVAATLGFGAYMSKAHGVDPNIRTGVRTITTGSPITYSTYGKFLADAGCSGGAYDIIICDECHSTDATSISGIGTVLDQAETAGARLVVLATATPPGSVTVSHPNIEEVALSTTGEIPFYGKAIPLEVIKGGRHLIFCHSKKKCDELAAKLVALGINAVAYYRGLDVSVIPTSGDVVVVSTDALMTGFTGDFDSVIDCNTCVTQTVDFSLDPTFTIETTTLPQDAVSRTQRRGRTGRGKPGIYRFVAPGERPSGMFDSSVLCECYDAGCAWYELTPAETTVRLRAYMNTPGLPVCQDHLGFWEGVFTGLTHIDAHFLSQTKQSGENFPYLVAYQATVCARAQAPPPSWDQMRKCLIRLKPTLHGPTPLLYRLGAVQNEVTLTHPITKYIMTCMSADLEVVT
Excerpt: HCV NS3 protease complexes, derived from the BMS strain, H77 strain or J4L6S strain, were generated, as described below. These purified recombinant proteins were generated for use in a homogeneous assay (see below) to provide an indication of how effective compounds of the present disclosure would be in inhibiting HCV NS3 proteolytic activity.
Serum from an HCV-infected patient was obtained from Dr. T. Wright, San Francisco Hospital. An engineered full-length cDNA (compliment deoxyribonucleic acid) template of the HCV genome (BMS strain) was constructed from DNA fragments obtained by reverse transcription-PCR (RT-PCR) of serum RNA (ribonucleic acid) and using primers selected on the basis of homology between other genotype 1a strains. From the determination of the entire genome sequence, a genotype 1a was assigned to the HCV isolate according to the classification of Simmonds et al. (See P Simmonds, K A Rose, S Graham, S W Chan, F McOmish, B C Dow, E A Follett, P L Yap and […] Marsden, J. Clin. Microbiol., 31(6), 1493-1503 (1993)). […] The infectious clones, H77 (1a genotype) and J4L6S (1b genotype) were obtained from R. Purcell (NIH) and the sequences are published in Genbank (AAB67036, see Yanagi, M., Purcell, R. H., Emerson, S. U. and Bukh, J. Proc. Natl. Acad. Sci. U.S.A. 94(16), 8738-8743 (1997); AF054247, see Yanagi, M., St Claire, M., Shapiro, M., Emerson, S. U., Purcell, R. H. and Bukh, J, Virology 244 (1), 161-172. (1998)).
NS3/4A protease complex-containing fractions were pooled and loaded on a desalting column Superdex-S200 pre-equilibrated with buffer D (25 mM HEPES, pH 7.5, 20% glycerol, 300 mM NaCl, 0.2% Triton X-100, 10 mM βME). Sample was loaded at a flow rate of 1 mL/min. NS3/4A protease complex-containing fractions were pooled and concentrated to approximately 0.5 mg/ml. The purity of the NS3/4A protease complexes, derived from the BMS, H77 and J4L6S strains, were judged to be greater than 90% by SDS-PAGE and mass spectrometry analyses. The enzyme was stored at −80° C., thawed on ice and diluted prior to use in assay buffer.
The purpose of this in vitro assay was to measure the inhibition of HCV NS3 protease complexes, derived from the BMS strain, H77 strain or J4L6S strain, as described above, by compounds of the present disclosure. This assay provides an indication of how effective compounds of the present disclosure would be in inhibiting HCV NS3 proteolytic activity.
In order to monitor HCV NS3/4A protease activity, an NS3/4A peptide substrate was used. The substrate was RET S1 (Resonance Energy Transfer Depsipeptide Substrate; AnaSpec, Inc. cat # 22991) (FRET peptide), described by Taliani et al. in Anal. Biochem. 240(2):60-67 (1996). The sequence of this peptide is loosely based on the NS4A/NS4B natural cleavage site for the HCV NS3 protease except there is an ester linkage rather than an amide bond at the cleavage site. The peptide also contains a fluorescence donor, EDANS, near one end of the peptide and an acceptor, DABCYL, near the other end. The fluorescence of the peptide is quenched by […] resonance energy transfer (RET) between the donor and the acceptor, but as the NS3 protease cleaves the peptide the products are released from RET quenching and the fluorescence of the donor becomes apparent.
The peptide substrate was incubated with one of the three recombinant NS3/4A protease complexes, in the absence or presence of a compound of the present disclosure. The inhibitory effects of a compound were determined by monitoring the formation of fluorescent reaction product in real time using a Cytofluor Series 4000.
Assay buffer: 50 mM HEPES, pH 7.5; 0.15 M NaCl; 0.1% Triton; 15% Glycerol; 10 mM βME. Substrate: 2 μM final concentration (from a 2 mM stock solution in DMSO stored at −20° C.). HCV NS3/4A protease type 1a (1b), 2-3 nM final concentration (from a 5 μM stock solution in 25 mM HEPES, pH 7.5, 20% glycerol, 300 mM NaCl, 0.2% Triton-X100, 10 mM βME). […]

[2] = test system: HCV replicon in HUH-7 cells; experiment: HCV replicon FRET assay; type: cell-based, Hepatitis C virus (strain 1b); conditions: Table 1
Excerpt: An HCV replicon whole cell system was established as described by Lohmann V, Korner F, Koch J, Herian U, Theilmann L, Bartenschlager R., Science 285(5424): 110-3 (1999). This system enabled us to evaluate the effects of our HCV Protease compounds on HCV RNA replication. Briefly, using the HCV strain 1b sequence described in the Lohmann paper (Assession number: AJ238799), an HCV cDNA was synthesized by Operon Technologies, Inc. (Alameda, Calif.), and the full-length replicon was then assembled in plasmid pGem9zf(+) (Promega, Madison, Wis.) using standard molecular biology techniques. The replicon consists of (i) the HCV 5′ UTR fused to the first 12 amino acids of the capsid protein, (ii) the neomycin phosphotransferase gene (neo), (iii) the IRES from encephalomyocarditis virus (EMCV), and (iv) HCV NS3 to NS5B genes and the HCV 3′ UTR. Plasmid DNAs were linearized with ScaI and RNA transcripts were synthesized in vitro using the T7 MegaScript transcription kit (Ambion, Austin, Tex.) according to manufacturer's directions. In vitro transcripts of the cDNA were transfected into the human hepatoma cell line, HUH-7. […] Resulting cell lines were characterized for positive and negative strand RNA production and protein production over time.
The HCV replicon FRET assay was developed to monitor the inhibitory effects of compounds described in the disclosure on HCV viral replication. HUH-7 cells, constitutively expressing the HCV replicon, were grown in Dulbecco's Modified Eagle Media (DMEM) (Gibco-BRL) containing 10% Fetal calf serum (FCS) (Sigma) and 1 mg/ml G418 (Gibco-BRL). Cells were seeded the night before (1.5×10^4 cells/well) in 96-well tissue-culture sterile plates. Compound and no compound controls were prepared in DMEM containing 4% FCS, 1:100 Penicillin/Streptomysin (Gibco-BRL), 1:100 L-glutamine and 5% DMSO in the dilution plate (0.5% DMSO final concentration in the assay). Compound/DMSO mixes were added to the cells and incubated for 4 days at 37° C. After 4 days, cells were first assessed for cytotoxicity using alamar Blue (Trek Diagnotstic Systems) for a CC50 reading. The toxicity of compound (CC50) was determined by adding 1/10th volume of alamarBlue to the media incubating the cells. After 4 h, the fluorescence signal from each well was read, with an excitation wavelength at 530 nm and an emission wavelength of 580 nm, using the Cytofluor Series 4000 (Perspective Biosystems). Plates were then rinsed thoroughly with Phosphate-Buffered Saline (PBS) (3 times 150 μl). The cells were lysed with 25 μl of a lysis assay reagent containing an HCV protease substrate (5× cell Luciferase cell culture lysis reagent (Promega #E153A) diluted to 1× with distilled water, NaCl added to 150 mM final, the FRET peptide substrate (as described for the enzyme assay above) diluted to 10 μM final from a 2 mM stock in 100% DMSO. The plate was then placed into the Cytofluor 4000 instrument which had been set to 340 nm excitation/490 nm emissions, automatic mode for 21 cycles and the plate read in a kinetic mode. EC50 determinations were carried out as described for the IC50 determinations.

[3] = Hepatitis C virus, Huh-7, read-out: EC50 Range, HCV replicon cell assay
[4] = read-out: EC50 Range, HCV replicon cell assay

Row | SMILES | IC50 [1] | EC50 [2, 3] | EC50 [2, 4]
1 | C=C[C@@H]1C[C@]1(NC(=O)[C@@H]1C[C@@H](Oc2cc(-c3ccccc3)nc3cc(OC)ccc23)CN1C(=O)[C@@H](O)C(C)C)C(=O)NS(=O)(=O)C1CC1 (stereo in doubt) [Example 4,Compound 5] | < 100 nM | 500 to 5000 nM | –
2 | C=C[C@@H]1C[C@]1(NC(=O)[C@@H]1C[C@@H](Oc2nccc3cc(OC)ccc23)CN1C(=O)[C@@H](O)C(C)C)C(=O)NS(=O)(=O)C1CC1 (stereo in doubt) [Example 52Compound 52] | 100 to 1000 nM | – | > 5000 nM
3 | C=C[C@@H]1C[C@]1(NC(=O)[C@@H]1C[C@@H](Oc2nccc3cc(OC)ccc23)CN1C(=O)[C@@H](OC(=O)NC1CCCC1)C(C)C)C(=O)NS(=O)(=O)C1CC1 (stereo in doubt) [Example 53Compound 53] | > 1000 nM | – | > 5000 nM
4 | C=C[C@@H]1C[C@]1(NC(=O)[C@@H]1C[C@@H](Oc2cc(-c3ccccc3)nc3cc(OC)ccc23)CN1C(=O)[C@@H](O)c1ccccc1)C(=O)NS(=O)(=O)C1CC1 [Example 4,Compound 1] | 100 to 1000 nM | > 5000 nM | –
5 | C=C[C@@H]1C[C@]1(NC(=O)[C@@H]1C[C@@H](Oc2cc(-c3ccccc3)nc3cc(OC)ccc23)CN1C(=O)C(O)CC(C)C)C(=O)NS(=O)(=O)C1CC1 (some centres unmarked) [Example 4,Compound 2] | 100 to 1000 nM | 500 to 5000 nM | –
6 | C=C[C@@H]1C[C@]1(NC(=O)[C@@H]1C[C@@H](Oc2cc(-c3ccccc3)nc3cc(OC)ccc23)CN1C(=O)[C@@H](O)Cc1c[nH]cn1)C(=O)NS(=O)(=O)C1CC1 [Example 4,Compound 3] | 100 to 1000 nM | > 5000 nM | –
7 | C=C[C@@H]1C[C@]1(NC(=O)[C@@H]1C[C@@H](Oc2cc(-c3ccccc3)nc3cc(OC)ccc23)CN1C(=O)[C@@H](O)C1CCCCC1)C(=O)NS(=O)(=O)C1CC1 [Example 4,Compound 4] | < 100 nM | 500 to 5000 nM | –
8 | C=C[C@@H]1C[C@]1(NC(=O)[C@@H]1C[C@@H](Oc2cc(-c3ccccc3)nc3cc(OC)ccc23)CN1C(=O)[C@@H](O)CC(C)C)C(=O)NS(=O)(=O)C1CC1 [Example 4,Compound 6] | < 100 nM | 500 to 5000 nM | –
9 | C=C[C@@H]1C[C@]1(NC(=O)C1CC(Oc2cc(-c3ccccc3)nc3cc(OC)ccc23)CN1C(=O)[C@@H](O)C(C)(C)C)C(=O)NS(=O)(=O)C1CC1 (some centres unmarked) [Example 4,Compound 8] | < 100 nM | 500 to 5000 nM | –
10 | C=C[C@@H]1C[C@]1(NC(=O)[C@@H]1C[C@@H](Oc2cc(-c3ccccc3)nc3cc(OC)ccc23)CN1C(=O)[C@@H](OC(=O)NC(C)(C)C)C(C)(C)C)C(=O)NS(=O)(=O)C1CC1 [Example 5,Compound 1] | < 100 nM | < 500 nM | –
11 | C=C[C@@H]1C[C@]1(NC(=O)[C@@H]1C[C@@H](Oc2cc(-c3ccccc3)nc3cc(OC)ccc23)CN1C(=O)[C@@H](OC(=O)NC(C)C)C(C)(C)C)C(=O)NS(=O)(=O)C1CC1 [Example 5,Compound 2] | < 100 nM | < 500 nM | –
12 | C=C[C@@H]1C[C@]1(NC(=O)[C@@H]1C[C@@H](Oc2cc(-c3ccccc3)nc3cc(OC)ccc23)CN1C(=O)[C@@H](OC(=O)NC1CCCC1)C(C)(C)C)C(=O)NS(=O)(=O)C1CC1 [Example 5,Compound 3] | < 100 nM | < 500 nM | –
13 | C=C[C@@H]1C[C@]1(NC(=O)[C@@H]1C[C@@H](Oc2cc(-c3ccccc3)nc3cc(OC)ccc23)CN1C(=O)[C@@H](OC(=O)Nc1ccccc1)C(C)(C)C)C(=O)NS(=O)(=O)C1CC1 [Example 5,Compound 4] | < 100 nM | < 500 nM | –
14 | C=C[C@@H]1C[C@]1(NC(=O)[C@@H]1C[C@@H](Oc2cc(-c3ccccc3)nc3cc(OC)ccc23)CN1C(=O)[C@@H](OC(=O)Nc1ccc(OC)cc1)C(C)(C)C)C(=O)NS(=O)(=O)C1CC1 [Example 5,Compound 5] | 100 to 1000 nM | 500 to 5000 nM | –
15 | C=C[C@@H]1C[C@]1(NC(=O)[C@@H]1C[C@@H](Oc2cc(-c3ccccc3)nc3cc(OC)ccc23)CN1C(=O)[C@@H](OC(=O)Nc1ccc(OC)cc1C)C(C)(C)C)C(=O)NS(=O)(=O)C1CC1 [Example 5,Compound 6] | 100 to 1000 nM | 500 to 5000 nM | –
16 | C=C[C@@H]1C[C@]1(NC(=O)[C@@H]1C[C@@H](Oc2cc(-c3ccccc3)nc3cc(OC)ccc23)CN1C(=O)C1CC1)C(=O)NS(=O)(=O)C1CC1 [Example 19] | 100 to 1000 nM | – | –
17 | C=CCCCCCC(O)C(=O)N1C[C@H](Oc2nc(-c3ccccc3)cc3cc(OC)ccc23)CC1C(=O)N[C@]1(C(=O)NS(=O)(=O)C2CC2)CC1C=C (some centres unmarked) [Example 21] | 100 to 1000 nM | – | –
